Legend:
Assay in all cases: relative viability (nuclei count vs DMSO), 5 days (fraction); higher = more cells survive
Shikonin + Pictilisib = compound: CC(C)=CC[C@@H](O)C1=CC(=O)c2c(O)ccc(O)c2C1=O [Shikonin] + CS(=O)(=O)N1CCN(Cc2cc3nc(-c4cccc5[nH]ncc45)nc(N4CCOCC4)c3s2)CC1 [Pictilisib] (partner 1 µM)
Method in brief: (§1)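 Relative viability is defined as nuclei in treated wells over nuclei in vehicle wells. Duplicate plates were run and medians reported. Lung cancer cell lines in 1536-well plates were dosed by pin tool one day after seeding, with one drug or with a fixed anchor-drug dose plus five library-drug doses (not always all listed) in √10 steps, and nuclei were counted after 5 days.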

[1] = compound: CC(C)N(CCCNC(=O)Nc1ccc(C(C)(C)C)cc1)C[C@H]1O[C@@H](n2ccc3c(N)ncnc32)[C@H](O)[C@@H]1O + C[C@]1(O)C[C@@H](c2nc(-c3ccc4ccc(-c5ccccc5)nc4c3)c3c(N)nccn32)C1 [Linsitinib] (partner 1 µM)
Method in brief: as §1

[2] = compound: CC(C)N(CCCNC(=O)Nc1ccc(C(C)(C)C)cc1)C[C@H]1O[C@@H](n2ccc3c(N)ncnc32)[C@H](O)[C@@H]1O + O=C(CCCCCCC(=O)Nc1ccccc1)NO [Vorinostat] (partner 1 µM)
Method in brief: as §1

[3] = compound: CC(C)N(CCCNC(=O)Nc1ccc(C(C)(C)C)cc1)C[C@H]1O[C@@H](n2ccc3c(N)ncnc32)[C@H](O)[C@@H]1O + O=C(c1cc(Cc2n[nH]c(=O)c3ccccc23)ccc1F)N1CCN(C(=O)C2CC2)CC1 [Olaparib] (partner 8 µM)
Method in brief: as §1

UMC-11
relative viability (Shikonin + Pictilisib; first compound 0.01 µM): 0.736 | relative viability (Shikonin + Pictilisib; first compound 0.1 µM): 0.999 | relative viability (Shikonin + Pictilisib; first compound 0.3162 µM): 0.76 | relative viability (Shikonin + Pictilisib; first compound 1 µM): 0.97 | relative viability ([1]; first compound 0.08 µM): 0.953 | relative viability ([1]; first compound 0.253 µM): 0.96 | relative viability ([1]; first compound 0.8 µM): 1.07 | relative viability ([1]; first compound 2.53 µM): 1.02 | relative viability ([1]; first compound 8 µM): 0.889 | relative viability ([2]; first compound 0.08 µM): 0.357 | relative viability ([2]; first compound 0.253 µM): 0.419 | relative viability ([2]; first compound 0.8 µM): 0.431 | relative viability ([2]; first compound 2.53 µM): 0.35 | relative viability ([2]; first compound 8 µM): 0.386 | relative viability ([3]; first compound 0.08 µM): 0.407 | relative viability ([3]; first compound 0.253 µM): 0.447 | relative viability ([3]; first compound 0.8 µM): 0.378 | relative viability ([3]; first compound 2.53 µM): 0.327 | relative viability ([3]; first compound 8 µM): 0.323
